# According to ChEMBL document CHEMBL5550152, “Design, synthesis and evaluation of novel prostate-specific membrane antigen-targeted aryl [18F]fluorosulfate PET tracers” (Bioorg Med Chem, 2024):
# What was measured:
# [1] = Drug distribution in nude mouse stomach xenografted with human 22Rv1 cells at 8.1 MBq,iv measured after 2 hrs; assay type: ADME, tissue-based, CWR22R; details: in vivo
# [2] = Drug distribution in nude mouse small intestine xenografted with human 22Rv1 cells at 8.1 MBq,iv measured after 4 hrs; assay type: ADME, tissue-based, CWR22R; details: in vivo
# [3] = Drug distribution in nude mouse gall bladder xenografted with human 22Rv1 cells at 8.1 MBq,iv measured after 4 hrs; assay type: ADME, tissue-based, CWR22R; details: in vivo
# [4] = Drug distribution in nude mouse blood xenografted with human 22Rv1 cells at 8.1 MBq,iv measured after 2 hrs; assay type: ADME, tissue-based, CWR22R; details: in vivo
# [5] = Drug distribution in nude mouse bone xenografted with human 22Rv1 cells at 8.1 MBq,iv measured after 1 hr; assay type: ADME, tissue-based, Bone element, CWR22R; details: in vivo
# [6] = Drug distribution in nude mouse heart xenografted with human 22Rv1 cells at 8.1 MBq,iv measured after 4 hrs; assay type: ADME, tissue-based, CWR22R; details: in vivo
# [7] = Drug distribution in nude mouse kidney xenografted with human 22Rv1 cells at 8.1 MBq,iv measured after 2 hrs; assay type: ADME, tissue-based, CWR22R; details: in vivo
# [8] = Drug distribution in nude mouse muscle tissue xenografted with human 22Rv1 cells at 8.1 MBq,iv measured after 2 hrs; assay type: ADME, tissue-based, CWR22R; details: in vivo
# [9] = Drug distribution in nude mouse tumor xenografted with human 22Rv1 cells at 8.1 MBq,iv measured after 2 hrs; assay type: ADME, tissue-based, Neoplasm, CWR22R; details: in vivo
# [10] = Drug distribution in nude mouse stomach xenografted with human 22Rv1 cells at 8.1 MBq,iv measured after 2 hrs in presence of 2-PMPA; assay type: ADME, tissue-based, CWR22R; details: in vivo
# [11] = Drug distribution in nude mouse blood xenografted with human 22Rv1 cells at 8.1 MBq,iv measured after 2 hrs in presence of 2-PMPA; assay type: ADME, tissue-based, CWR22R; details: in vivo
# [12] = Drug uptake in human 22Rv1 cells at 3.7 10^-2MBq pretreated with 2-PMPA for 30 mins followed by compound addition and measured after 1 hr relative to control; assay type: ADME, cell-based; details: cwr22r
# [13] = Drug distribution in nude mouse lung xenografted with human 22Rv1 cells at 8.1 MBq,iv measured after 2 hrs; assay type: ADME, tissue-based, CWR22R; details: in vivo
# [14] = Drug distribution in nude mouse heart xenografted with human 22Rv1 cells at 8.1 MBq,iv measured after 2 hrs in presence of 2-PMPA; assay type: ADME, tissue-based, CWR22R; details: in vivo
# [15] = Drug uptake in mouse abdomen xenografted with human 22Rv1 cells at 7.4 MBq, iv measured after 2 to 4 hrs by PET imaging analysis; assay type: ADME, organism-based, CWR22R; details: in vivo, time 2-4 hrs
# [16] = Drug distribution in nude mouse small intestine xenografted with human 22Rv1 cells at 8.1 MBq,iv measured after 2 hrs in presence of 2-PMPA; assay type: ADME, tissue-based, CWR22R; details: in vivo
# [17] = Drug distribution in nude mouse large intestine xenografted with human 22Rv1 cells at 8.1 MBq,iv measured after 1 hr; assay type: ADME, tissue-based, CWR22R; details: in vivo
# [18] = Drug distribution in nude mouse heart xenografted with human 22Rv1 cells at 8.1 MBq,iv measured after 1 hr; assay type: ADME, tissue-based, CWR22R; details: in vivo
# [19] = Drug distribution in nude mouse spleen xenografted with human 22Rv1 cells at 8.1 MBq,iv measured after 4 hrs; assay type: ADME, tissue-based, CWR22R; details: in vivo
# [20] = Drug uptake in mouse tumor xenografted with human 22Rv1 cells at 7.4 MBq, iv measured after 4 hrs by PET imaging analysis relative to control; assay type: ADME, organism-based, Neoplasm, CWR22R; details: in vivo
# [21] = Drug distribution in nude mouse kidney xenografted with human 22Rv1 cells at 8.1 MBq,iv measured after 2 hrs in presence of 2-PMPA; assay type: ADME, tissue-based, CWR22R; details: in vivo
# [22] = Drug uptake in human 22Rv1 cells at 3.7 10^-2MBq measured after 1 hr relative to control; assay type: ADME, cell-based; details: cwr22r
# [23] = Stability of the compound in PBS buffer measured after 4 hrs by radio-HPLC analysis; assay type: physicochemical
# [24] = Drug distribution in nude mouse large intestine xenografted with human 22Rv1 cells at 8.1 MBq,iv measured after 2 hrs in presence of 2-PMPA; assay type: ADME, tissue-based, CWR22R; details: in vivo
# [25] = Drug distribution in nude mouse heart xenografted with human 22Rv1 cells at 8.1 MBq,iv measured after 2 hrs; assay type: ADME, tissue-based, CWR22R; details: in vivo
# [26] = Drug distribution in nude mouse small intestine xenografted with human 22Rv1 cells at 8.1 MBq,iv measured after 1 hr; assay type: ADME, tissue-based, CWR22R; details: in vivo
# [27] = Drug distribution in nude mouse stomach xenografted with human 22Rv1 cells at 8.1 MBq,iv measured after 4 hrs; assay type: ADME, tissue-based, CWR22R; details: in vivo
# [28] = Drug uptake in mouse tumor xenografted with human 22Rv1 cells at 7.4 MBq, iv pretreated with 2-PMPA measured after 4 hrs by PET imaging analysis relative to control; assay type: ADME, organism-based, Neoplasm, CWR22R; details: in vivo
# [29] = Drug distribution in nude mouse gall bladder xenografted with human 22Rv1 cells at 8.1 MBq,iv measured after 2 hrs in presence of 2-PMPA; assay type: ADME, tissue-based, CWR22R; details: in vivo
# [30] = Drug distribution in nude mouse blood xenografted with human 22Rv1 cells at 8.1 MBq,iv measured after 1 hr; assay type: ADME, tissue-based, CWR22R; details: in vivo
# [31] = Drug distribution in nude mouse bone xenografted with human 22Rv1 cells at 8.1 MBq,iv measured after 4 hrs; assay type: ADME, tissue-based, Bone element, CWR22R; details: in vivo
# [32] = Drug distribution in nude mouse blood xenografted with human 22Rv1 cells at 8.1 MBq,iv measured after 4 hrs; assay type: ADME, tissue-based, CWR22R; details: in vivo
smiles,measurement,setting,value
COc1cc(C(=O)N[C@@H](CCC(=O)O)C(=O)N[C@@H](CCC(=O)O)C(=O)NCc2ccc(C(=O)N[C@@H](Cc3ccc4ccccc4c3)C(=O)NCCCC[C@H](NC(=O)N[C@@H](CCC(=O)O)C(=O)O)C(=O)O)cc2)ccc1OS(=O)(=O)[18F],Drug uptake,[1],0.95 % ID/g
same,Drug uptake,[2],0.79 % ID/g
same,Drug uptake,[3],1.39 % ID/g
same,Drug uptake,[4],2.95 % ID/g
same,Drug uptake,[5],2.11 % ID/g
same,Drug uptake,[6],0.31 % ID/g
same,Drug uptake,[7],23.42 % ID/g
same,Drug uptake,[8],0.45 % ID/g
same,Drug uptake,[9],4.54 % ID/g
same,Drug uptake,[10],0.57 % ID/g
same,Drug uptake,[11],3.86 % ID/g
same,Drug uptake,[12],0.53%
same,Drug uptake,[13],1.28 % ID/g
same,Drug uptake,[14],0.85 % ID/g
same,Drug uptake,[15],Active
same,Drug uptake,[16],9.02 % ID/g
same,Drug uptake,[17],2.21 % ID/g
same,Drug uptake,[18],1.57 % ID/g
same,Drug uptake,[19],0.97 % ID/g
same,Drug uptake,[20],3.25 % ID/g
same,Drug uptake,[21],4.33 % ID/g
same,Drug uptake,[22],0.72%
same,Stability,[23],Stable
same,Drug uptake,[24],1.1 % ID/g
same,Drug uptake,[25],0.97 % ID/g
same,Drug uptake,[26],2.58 % ID/g
same,Drug uptake,[27],0.44 % ID/g
same,Drug uptake,[28],1.4 % ID/g
same,Drug uptake,[29],4.39 % ID/g
same,Drug uptake,[30],6.43 % ID/g
same,Drug uptake,[31],3.76 % ID/g
same,Drug uptake,[32],0.8 % ID/g
